Measured values published in EP0738149B1 (priority 1994, dated 1995).
Like-named read-outs stand apart in the source and are kept apart here.

Legend:
rats [1] = assay: Maximal electroshock (MES) model in rats, p.o.;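 further: rat MES model gauging antiepileptic efficacy versus generalized and partial seizures after oral dosing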; assay type: in vivo; details: Rattus norvegicus, po, read-out: RATS MES 50
[2] = Neurotoxicity in rats (positional sense test and gait stance test), p.o.; details: rat, in vivo, po
Procedure: (§1) Neurotoxicity of the claimed agents was also assessed in mice (i.p. administration) by the rotorod ataxia test and/or in rats (p.o. administration) by positional sense test and gait stance test. […] The term quantitating the neurotoxicity is the medial neurological toxic dose (TD50), was determined in the above tests.

rats [3] = assay: as above; details: rats, p.o.; Table 16
Procedure: as §1

rats [4] = details: Rattus norvegicus, po, read-out: RATS scMet ED50
hypoxic rat = assay: Amphetamine-induced stereotype behavior in hypoxic rat, Experiments 2A and 2B; assay type: in vivo; details: for total number of lateral head movements per minute: Exp 2A, 0.5mg/kg daily 29 days, D-amphetamine sulfate 0.5mg/kg s.c., 45-60 min after, Mean ± SEM; for lateral head movements: Exp 2B, 0.3mg/kg daily i.p. 14 days, 12 month-old rats
Procedure: Experiment 2A. Wistar male rats, 15-19 month-old, were exposed to a single hypoxic episode as described above. […] Rats pretreated for 29 days with daily doses of the test drugs (0.5mg/kg), received a sub-cutaneous (s.c.) injection of D-amphetamine sulfate at a dose of 0.5mg/kg. D-amphetamine is known to cause an enhancement of the effects of CNS dopamine by a mechanism involving dopamine release, and blockage of its uptake and its metabolism by MAO. The behavioral manifestation of amphetamine action is a stereotypic pattern of lateral head movements.
Counts of lateral head movements were taken over two successive intervals of 1 min each, 45-60 min after the injection of amphetamine and then averaged.
Experiment 2B. […] The drugs were given by i.p. injection. • 3) Duration of the treatment: 14 days.

hypoxia-lesioned rats = assay: Water maze working memory test in hypoxia-lesioned rats, Experiment 3B; assay type: in vivo, rat; details: 0.5mg/kg/day 60 days, ±SEM
Text: The apparatus used consists of a circular water tank 160cm in diameter filled with water to a depth of 38cm. The water was made cloudy by the addition of milk powder. A clear Plexiglass 15cm platform, supported by a movable stand rest on the bottom of the tank was submerged to a depth of 2cm from the water surface. Normally a swimming rat cannot perceive the location of the platform but it may recall it from a previous experience and training, unless it suffers from some memory impairment. The time taken to locate the platform is measured in seconds and referred to as the latency. During the experiment all orientational cues such as ceiling lights etc. remained unchanged. Longer latencies are observed with rats with some impairment to their memory.
Each rat was given two trails a day for four days, entering the pool from the same point of entry each day. The position of the platform was changed daily to one of four predetermined positions. Each rat was tested twice each day over the four days, referred to as runs 1 and 2 on sessions I-IV. Initially the rat was placed on the platform for 60 seconds. It was then removed and placed at the point of entry and allowed a maximum of 120 seconds to locate the platform (run 1). The second run for that day followed 60 seconds later (run 2). In the second run the rat is expected to find the platform much sooner, having benefitted from its earlier experience. […] The average latency of run 1 in four sessions on four different days was then related to the corresponding parameter of run 2. The smaller the ratio of […], the better the short range learning score.
Table 8. […] The data are the latencies in seconds±SEM that it took a given group to locate a submerged and invisible platform the location of which was shifted from one session to the other. The time interval between sessions was one day, and that between successive runs was 60 seconds. (n=7-8 rats per group) TABLE 8

MAO-A = target: T1, MAO-A (Rattus norvegicus, UniProt P21396); details: ex vivo brain
T1 sequence (P21396 1-526): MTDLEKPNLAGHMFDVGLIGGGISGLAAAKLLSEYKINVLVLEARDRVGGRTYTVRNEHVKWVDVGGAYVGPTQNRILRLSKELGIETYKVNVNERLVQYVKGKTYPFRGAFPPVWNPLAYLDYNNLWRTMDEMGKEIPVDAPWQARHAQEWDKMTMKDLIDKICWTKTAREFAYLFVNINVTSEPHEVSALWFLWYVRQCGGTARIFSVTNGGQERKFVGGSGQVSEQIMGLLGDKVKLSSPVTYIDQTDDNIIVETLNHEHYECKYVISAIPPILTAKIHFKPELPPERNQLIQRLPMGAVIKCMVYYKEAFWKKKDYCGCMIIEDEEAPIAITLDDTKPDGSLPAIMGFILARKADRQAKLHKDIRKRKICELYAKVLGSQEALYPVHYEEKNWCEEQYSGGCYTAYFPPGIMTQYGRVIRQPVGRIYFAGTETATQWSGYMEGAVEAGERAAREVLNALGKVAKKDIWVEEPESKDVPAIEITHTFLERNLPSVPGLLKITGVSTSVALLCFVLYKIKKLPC
Text: The brains of some rats from each experimental group in Exp. 1 (chronic treatment of 80 days) and Exp. 2 (acute treatment of 14 days) were ex vivo analyzed for MAO-A and MAO-B activity.

rats [5] = assay: Closed head injury in rats: motor function (Neurological Severity Status), Experiments 4A-4E
[6] = Exp 4A, 0.1mg/kg i.p. at 0,4,8 and 12 hours post-trauma
[7] = Exp 4B, 0.1mg/kg once a day for 14 days

CC(=O)N[C@@H]1CCc2ccccc21 [Example 18, (R)-N-Acetyl-1-aminoindan]
ED50 (rats [1]; rats, p.o., Table 15): 14 mg/kg
TD50 [2]: > 500 mg/kg
RATS TD50 (rats [3]): >500 mg/kg
ED50 (rats [4]): > 250 mg/kg

N[C@@H]1CCc2ccccc21 [R-AI, (R)-1-aminoindan]
total number of lateral head movements per minute (hypoxic rat): 108 ± 3 per minute
lateral head movements (hypoxic rat): 92 ± 3
latency to locate submerged platform (hypoxia-lesioned rats; Session I Run 1): 50 ± 16 s
latency to locate submerged platform (hypoxia-lesioned rats; Session I Run 2): 25 ± 12 s
latency to locate submerged platform (hypoxia-lesioned rats; Session II Run 1): 25 ± 8 s
latency to locate submerged platform (hypoxia-lesioned rats; Session II Run 2): 14 ± 3 s
latency to locate submerged platform (hypoxia-lesioned rats; Session III Run 1): 19 ± 5 s
latency to locate submerged platform (hypoxia-lesioned rats; Session III Run 2): 14 ± 3 s
latency to locate submerged platform (hypoxia-lesioned rats; Session IV Run 1): 15 ± 5 s
latency to locate submerged platform (hypoxia-lesioned rats; Session IV Run 2): 6 ± 2 s
% inhibition of MAO A acute treatment (MAO-A; acute treatment of 14 days): 13%
% inhibition of MAO A chronic treatment (MAO-A; chronic treatment of 80 days): 6%
ED50 (rats [1]): 184 mg/kg
TD50 [2]: 492 mg/kg
RATS TD50 (rats [3]): 492 mg/kg
NSS 1hr (rats [5]; [6]): 16.8
NSS 24hr (rats [5]; [6]): 8.3
ΔNSS (rats [5]; Exp 4A, 0.1mg/kg i.p. at 0,4,8 and 12 hours post-trauma, change 1 hour to 24 hours): 8.5±0.5
NSS at 1hr (rats [5]; [7]): 17.7±0.5
ΔNSS at 24hr (rats [5]; [7]): 7.3±0.8
ΔNSS at 48hr (rats [5]; [7]): 9.3±0.8
ΔNSS at 7d (rats [5]; [7]): 11.8±0.5
ΔNSS at 14d (rats [5]; [7]): 14.0±0.4
NSS 1hr (rats [5]; Exp 4C, 0.03 mg/kg): 16.3
NSS 24hr (rats [5]; Exp 4C, 0.03 mg/kg): 10.4
ΔNSS (rats [5]; Exp 4C, 0.03 mg/kg): 5.9±0.3
NSS 1hr (rats [5]; Exp 4C, 0.1 mg/kg): 16.2
NSS 24hr (rats [5]; Exp 4C, 0.1 mg/kg): 10.4
ΔNSS (rats [5]; Exp 4C, 0.1 mg/kg): 5.8±0.4
NSS 1hr (rats [5]; Exp 4C, 0.3 mg/kg): 16.6
NSS 24hr (rats [5]; Exp 4C, 0.3 mg/kg): 8.5
ΔNSS (rats [5]; Exp 4C, 0.3 mg/kg): 8.1±0.5
NSS 1hr (rats [5]; Exp 4C, 1.0 mg/kg): 16.8
NSS 24hr (rats [5]; Exp 4C, 1.0 mg/kg): 8.8
ΔNSS (rats [5]; Exp 4C, 1.0 mg/kg): 8.0±0.5
NSS 1hr (rats [5]; Exp 4C, 3.0 mg/kg): 16.4
NSS 24hr (rats [5]; Exp 4C, 3.0 mg/kg): 7.8
ΔNSS (rats [5]; Exp 4C, 3.0 mg/kg): 8.6±0.7
ΔNSS (rats [5]; Exp 4D, 1mg/kg, times of administration 0): 8.8±10.8
ΔNSS (rats [5]; Exp 4D, 1mg/kg, times of administration 0 + 4h): 8.0±1.0
ΔNSS (rats [5]; Exp 4D, 1mg/kg, times of administration 0 + 8h): 8.0±0.1
ΔNSS (rats [5]; Exp 4D, 1mg/kg, times of administration 0 + 12h): 8.7±0.6
ΔNSS (rats [5]; Exp 4D, 1mg/kg, times of administration 0,4,8,12h): 8.2±0.7
ΔNSS (rats [5]; Exp 4E, 1mg/kg given + 1h post head trauma): 8.4±0.6
ΔNSS (rats [5]; Exp 4E, 1mg/kg given + 2h post head trauma): 7.0±0.5
ΔNSS (rats [5]; Exp 4E, 1mg/kg given + 3h post head trauma): 7.4±0.5

C#CCN(C)[C@H](C)Cc1ccccc1 [deprenyl]
total number of lateral head movements per minute (hypoxic rat): 76 ± 3 per minute
lateral head movements (hypoxic rat): 77 ± 3
latency to locate submerged platform (hypoxia-lesioned rats; Session I Run 1): 42 ± 16 s
latency to locate submerged platform (hypoxia-lesioned rats; Session I Run 2): 40 ± 17 s
latency to locate submerged platform (hypoxia-lesioned rats; Session II Run 1): 42 ± 18 s
latency to locate submerged platform (hypoxia-lesioned rats; Session II Run 2): 35 ± 16 s
latency to locate submerged platform (hypoxia-lesioned rats; Session III Run 1): 32 ± 15 s
latency to locate submerged platform (hypoxia-lesioned rats; Session III Run 2): 8 ± 2 s
latency to locate submerged platform (hypoxia-lesioned rats; Session IV Run 1): 19 ± 6 s
latency to locate submerged platform (hypoxia-lesioned rats; Session IV Run 2): 12 ± 4 s
